Laboratory results published in patent US20210283215A1, “BACTERIOTHERAPY AGAINST PROPRIONIBACTERIUM ACNES FOR THE TREATMENT OF ACNE” (The Regents of the University of California, priority 2018, published 2021).

Test system: C. acnes C2
Assay: Inhibition of C. acnes C2 growth, 72 h culture
Type: cell-based
Conditions: C. acnes C2, 72 h culture

| Substance | concentration inhibiting growth of C. acnes |
| --- | --- |
| PSMβ1: phenol soluble modulin beta peptide of S. capitis E12, SEQ ID NO: 9437, individually synthesized (MTKLAEAIANTVKAGQDHDWAKLGTSIVGIAENGIGLLGKVFGF; listed as Staphylococcus capitis) | 62 µg/mL |
| PSMβ4: phenol soluble modulin beta peptide of S. capitis E12, SEQ ID NO: 9443, individually synthesized (MTKLAEAIANAVKAGQDQDWAKLGTSIVGIAENGISLLGKVFGF; listed as Staphylococcus capitis) | 125 µg/mL |
| PSMβ6: phenol soluble modulin beta peptide of S. capitis E12, SEQ ID NO: 9447, individually synthesized (MEKLFDAIRNTVDAGINQDWTKLGTSIVDIVDNGVKVISKFIGA; listed as Staphylococcus capitis) | 62 µg/mL |
